The results in this text go back to ChEMBL document CHEMBL5291721, “A preclinical secondary pharmacology resource illuminates target-adverse drug reaction associations of marketed drugs” (Nat Commun, 2023).

As usually defined, the AC50 is the concentration at which the activity in the assay is half-maximal. Read a low AC50 as greater potency.

Experiment [1] addresses Hydroxycarboxylic acid receptor 2 (Homo sapiens, UniProt Q8TDS4).
Experiment [2] deals with T1, Substance-K receptor (Homo sapiens, UniProt P21452).
T1 sequence (P21452 whole entry): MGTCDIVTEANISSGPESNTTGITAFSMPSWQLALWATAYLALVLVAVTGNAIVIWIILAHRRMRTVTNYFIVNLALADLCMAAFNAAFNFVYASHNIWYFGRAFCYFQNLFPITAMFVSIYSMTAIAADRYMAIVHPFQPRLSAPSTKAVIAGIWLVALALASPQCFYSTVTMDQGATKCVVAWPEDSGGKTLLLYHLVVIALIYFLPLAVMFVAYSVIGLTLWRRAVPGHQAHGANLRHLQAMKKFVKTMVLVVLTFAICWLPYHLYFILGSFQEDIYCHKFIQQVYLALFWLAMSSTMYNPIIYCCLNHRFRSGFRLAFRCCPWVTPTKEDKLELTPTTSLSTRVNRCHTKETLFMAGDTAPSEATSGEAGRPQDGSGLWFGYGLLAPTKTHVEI

Experiment [3] addresses T2, Muscarinic acetylcholine receptor M4 (Homo sapiens, UniProt P08173).
T2 sequence (P08173 whole entry): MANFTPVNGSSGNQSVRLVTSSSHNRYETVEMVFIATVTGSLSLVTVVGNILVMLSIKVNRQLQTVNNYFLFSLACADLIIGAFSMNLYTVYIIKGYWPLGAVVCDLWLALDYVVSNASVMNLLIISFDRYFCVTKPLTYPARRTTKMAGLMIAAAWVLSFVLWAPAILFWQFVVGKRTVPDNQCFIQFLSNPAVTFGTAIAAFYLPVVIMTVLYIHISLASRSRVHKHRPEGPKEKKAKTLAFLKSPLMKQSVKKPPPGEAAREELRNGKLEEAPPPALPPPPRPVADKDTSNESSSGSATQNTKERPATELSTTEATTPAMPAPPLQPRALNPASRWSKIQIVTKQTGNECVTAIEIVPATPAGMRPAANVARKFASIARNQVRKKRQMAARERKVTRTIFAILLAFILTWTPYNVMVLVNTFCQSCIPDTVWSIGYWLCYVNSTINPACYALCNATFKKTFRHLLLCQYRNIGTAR

Experiment [4] concerns the target T3, Androgen receptor (Rattus norvegicus, UniProt P15207).
T3 sequence (P15207 whole entry): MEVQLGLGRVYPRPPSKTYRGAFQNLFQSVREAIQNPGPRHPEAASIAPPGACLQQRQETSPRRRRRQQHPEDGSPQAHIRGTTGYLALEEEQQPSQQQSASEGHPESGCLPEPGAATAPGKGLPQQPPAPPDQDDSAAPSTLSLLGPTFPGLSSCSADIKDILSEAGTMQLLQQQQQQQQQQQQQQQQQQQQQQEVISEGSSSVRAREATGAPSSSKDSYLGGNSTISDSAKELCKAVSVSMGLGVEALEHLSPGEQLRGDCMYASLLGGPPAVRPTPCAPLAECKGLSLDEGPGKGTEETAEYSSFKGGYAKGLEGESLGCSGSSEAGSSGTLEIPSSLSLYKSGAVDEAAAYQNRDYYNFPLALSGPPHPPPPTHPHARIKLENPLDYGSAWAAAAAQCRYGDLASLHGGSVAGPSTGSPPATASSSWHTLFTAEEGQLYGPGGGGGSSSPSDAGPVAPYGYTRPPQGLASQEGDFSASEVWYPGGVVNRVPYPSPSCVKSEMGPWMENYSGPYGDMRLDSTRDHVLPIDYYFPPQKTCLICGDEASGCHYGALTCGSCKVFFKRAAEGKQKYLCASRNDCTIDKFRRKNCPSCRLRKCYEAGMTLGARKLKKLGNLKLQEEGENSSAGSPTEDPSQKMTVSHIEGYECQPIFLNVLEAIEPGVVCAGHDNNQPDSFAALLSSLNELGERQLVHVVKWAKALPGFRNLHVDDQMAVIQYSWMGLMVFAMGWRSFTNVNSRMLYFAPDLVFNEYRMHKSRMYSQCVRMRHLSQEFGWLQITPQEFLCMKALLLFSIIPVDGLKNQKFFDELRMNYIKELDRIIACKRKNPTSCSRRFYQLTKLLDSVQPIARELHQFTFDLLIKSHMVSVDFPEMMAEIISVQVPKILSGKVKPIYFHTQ
Type of experiment: functional.

For experiment [5], the target named is T4, Estrogen receptor (Homo sapiens, UniProt P03372).
T4 sequence (P03372 whole entry): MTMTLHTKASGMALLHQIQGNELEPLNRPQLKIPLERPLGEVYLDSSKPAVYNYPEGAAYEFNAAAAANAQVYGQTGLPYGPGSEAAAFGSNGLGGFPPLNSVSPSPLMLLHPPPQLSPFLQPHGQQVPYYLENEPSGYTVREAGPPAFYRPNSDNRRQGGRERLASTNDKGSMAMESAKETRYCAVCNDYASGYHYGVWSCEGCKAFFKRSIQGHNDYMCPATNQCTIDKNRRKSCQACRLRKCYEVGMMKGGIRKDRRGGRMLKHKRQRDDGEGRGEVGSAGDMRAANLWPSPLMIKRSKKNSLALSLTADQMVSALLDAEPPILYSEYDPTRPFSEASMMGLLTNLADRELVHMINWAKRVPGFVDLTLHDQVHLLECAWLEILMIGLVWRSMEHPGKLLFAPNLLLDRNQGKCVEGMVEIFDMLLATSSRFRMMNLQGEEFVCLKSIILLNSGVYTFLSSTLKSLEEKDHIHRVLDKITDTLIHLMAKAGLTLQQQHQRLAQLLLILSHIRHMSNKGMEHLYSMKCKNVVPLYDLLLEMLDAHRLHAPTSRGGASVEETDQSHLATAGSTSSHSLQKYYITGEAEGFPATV
Type of experiment: functional.

The target of experiment [6] is T5, Peroxisome proliferator-activated receptor alpha (Homo sapiens, UniProt Q07869).
T5 sequence (Q07869 whole entry): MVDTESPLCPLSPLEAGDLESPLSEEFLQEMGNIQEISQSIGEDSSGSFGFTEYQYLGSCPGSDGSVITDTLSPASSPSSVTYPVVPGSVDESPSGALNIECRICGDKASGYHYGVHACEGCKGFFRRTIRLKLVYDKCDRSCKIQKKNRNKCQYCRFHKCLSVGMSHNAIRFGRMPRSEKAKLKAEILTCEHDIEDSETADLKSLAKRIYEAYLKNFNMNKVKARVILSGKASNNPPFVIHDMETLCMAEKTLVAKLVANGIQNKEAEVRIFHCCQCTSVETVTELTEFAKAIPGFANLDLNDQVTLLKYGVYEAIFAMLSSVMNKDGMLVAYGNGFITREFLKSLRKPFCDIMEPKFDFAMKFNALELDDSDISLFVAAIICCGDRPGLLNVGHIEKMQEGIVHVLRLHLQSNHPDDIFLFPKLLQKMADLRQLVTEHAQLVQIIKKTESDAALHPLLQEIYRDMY
Type of experiment: functional.

The target of experiment [7] is T5, Peroxisome proliferator-activated receptor alpha. Type of experiment: functional. The source holds these as a separate data set.
In experiment [8] the target is T3, Androgen receptor.
Further: assay procedure not described here.

Sequence of Hydroxycarboxylic acid receptor 2 (Q8TDS4 whole entry): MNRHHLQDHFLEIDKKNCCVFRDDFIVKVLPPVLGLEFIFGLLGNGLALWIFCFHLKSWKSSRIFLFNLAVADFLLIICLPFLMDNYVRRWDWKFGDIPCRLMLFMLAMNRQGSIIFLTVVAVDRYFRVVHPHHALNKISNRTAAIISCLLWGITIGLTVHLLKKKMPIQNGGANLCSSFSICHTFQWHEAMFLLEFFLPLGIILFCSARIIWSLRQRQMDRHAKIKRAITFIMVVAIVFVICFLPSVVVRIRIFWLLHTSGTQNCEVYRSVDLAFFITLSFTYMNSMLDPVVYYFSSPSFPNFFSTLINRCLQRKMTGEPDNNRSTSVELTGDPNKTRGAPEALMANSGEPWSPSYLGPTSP

`Cc1cnc(C(=O)O)c[n+]1[O-]` [ACIPIMOX] yielded a half-maximal activity concentration (AC50) in experiment [1] of 3.9 µM. For the compound `N=C(N)NC(=O)c1nc(Cl)c(N)nc1N` [AMILORIDE], the AC50 in experiment [2] and in experiment [3] was greater than 10 µM throughout. In turn, `C[C@]12C=CC(=O)C=C1C(Cl)=C[C@@H]1[C@@H]2[C@@H](O)C[C@@]2(C)[C@H]1CC[C@]2(O)C(=O)CO` [CLOPREDNOL] registered an AC50 in experiment [4] greater than 30 µM. As to `COc1cccc2c1C(=O)c1c(O)c3c(c(O)c1C2=O)C[C@@](O)(C(=O)CO)C[C@@H]3O[C@H]1C[C@H](N)[C@H](O)[C@H](C)O1` [DOXORUBICIN], in experiment [5], the AC50 was greater than 10 µM. With `CC(C)(Oc1ccc(Cl)cc1)C(=O)OCCOC(=O)c1cccnc1` [ETOFIBRATE], the AC50 in experiment [6], in experiment [4] and in experiment [7] was greater than 30 µM each time. In turn, `CCC(=O)c1ccc2c(c1)N(CC(C)N(C)C)c1ccccc1S2` (stereo not given) [PROPIOMAZINE] showed an AC50 in experiment [8] greater than 30 µM. On the same count and under the same terms, for `CN(C)[C@@H]1C(O)=C(C(=O)NCN2CCCC2)C(=O)[C@@]2(O)C(O)=C3C(=O)c4c(O)cccc4[C@@](C)(O)[C@H]3C[C@@H]12` [ROLITETRACYCLINE] the value was 4.35 µM.
